Consider six compounds from the supplement of paper PMC10307832.

In the first assay the test system is NCI-H1650. Description: relative viability (nuclei count vs DMSO), 5 days (fraction); higher = more cells survive. The following applies: first compound 8 µM. An outline of the steps: (§1)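 Dosing by pin tool came one day after lung cancer cell lines were seeded in 1536-well plates, using either one drug or a fixed anchor-drug dose plus five library-drug doses (not always all listed) in √10 steps. After 5 days, nuclei were counted on 4× images. Relative viability is treated-well nuclei count divided by vehicle-well nuclei count, and values are medians of duplicate plates.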
In turn, `Nc1cccc2c1CN(C1CCC(=O)NC1=O)C2=O` (configuration not stated) [Lenalidomide] + N=C(N)NC(=N)NCCc1ccccc1 [Phenformin] (partner 250 µM) came in with a relative viability of 0.483.
Still for that read-out and setting: in the case of `Nc1cccc2c1CN(C1CCC(=O)NC1=O)C2=O` (configuration not stated) [Lenalidomide] + Nc1nc2[nH]cc(CCc3ccc(C(=O)N[C@@H](CCC(=O)O)C(=O)O)cc3)c2c(=O)[nH]1 [Pemetrexed] (partner 0.2 µM) it was 0.53; in that of `Nc1cccc2c1CN(C1CCC(=O)NC1=O)C2=O` (configuration not stated) [Lenalidomide] + CC(=O)c1c(C)c2cnc(Nc3ccc(N4CCNCC4)cn3)nc2n(C2CCCC2)c1=O [Palbociclib] (partner 0.5 µM), 0.453; in that of `Nc1cccc2c1CN(C1CCC(=O)NC1=O)C2=O` (configuration not stated) [Lenalidomide] + O=C(CCCCCCC(=O)Nc1ccccc1)NO [Vorinostat] (partner 1 µM), 0.664.
Take `Nc1cccc2c1CN(C1CCC(=O)NC1=O)C2=O` (configuration not stated) [Lenalidomide] + COc1cccc2cc(-c3nc([C@H]4CC[C@H](C(=O)O)CC4)n4ncnc(N)c34)[nH]c12 [OSI-027] (partner 0.5 µM): the relative viability is 0.656.

For a further assay, the system named is NCI-H1792. The description is as above. The conditions noted are these: first compound 0.253 µM. An outline of the steps:
as §1
`Nc1cccc2c1CN(C1CCC(=O)NC1=O)C2=O` (configuration not stated) [Lenalidomide] + Nc1ncn([C@H]2C[C@H](O)[C@@H](CO)O2)c(=O)n1 [Decitabine] (partner 2 µM) registered a relative viability of 0.568.
In turn, `Nc1cccc2c1CN(C1CCC(=O)NC1=O)C2=O` (configuration not stated) [Lenalidomide] + N=C(N)NC(=N)NCCc1ccccc1 [Phenformin] (partner 250 µM) gave a relative viability of 0.369.
`Nc1cccc2c1CN(C1CCC(=O)NC1=O)C2=O` (configuration not stated) [Lenalidomide] + Nc1nc2[nH]cc(CCc3ccc(C(=O)N[C@@H](CCC(=O)O)C(=O)O)cc3)c2c(=O)[nH]1 [Pemetrexed] (partner 0.2 µM): the relative viability worked out at 1.12.
`Nc1cccc2c1CN(C1CCC(=O)NC1=O)C2=O` (configuration not stated) [Lenalidomide] + CC(=O)c1c(C)c2cnc(Nc3ccc(N4CCNCC4)cn3)nc2n(C2CCCC2)c1=O [Palbociclib] (partner 0.5 µM) displayed a relative viability of 0.656.
Turning to `Nc1cccc2c1CN(C1CCC(=O)NC1=O)C2=O` (configuration not stated) [Lenalidomide] + COc1cccc2cc(-c3nc([C@H]4CC[C@H](C(=O)O)CC4)n4ncnc(N)c34)[nH]c12 [OSI-027] (partner 0.5 µM), the relative viability was determined as 0.682.

The same assay, now with this note: first compound 0.8 µM.
`Nc1cccc2c1CN(C1CCC(=O)NC1=O)C2=O` (configuration not stated) [Lenalidomide] + Nc1ncn([C@H]2C[C@H](O)[C@@H](CO)O2)c(=O)n1 [Decitabine] (partner 2 µM) yielded a relative viability of 0.454.
On the same count and under the same terms, the figure for `Nc1cccc2c1CN(C1CCC(=O)NC1=O)C2=O` (configuration not stated) [Lenalidomide] + Nc1nc2[nH]cc(CCc3ccc(C(=O)N[C@@H](CCC(=O)O)C(=O)O)cc3)c2c(=O)[nH]1 [Pemetrexed] (partner 0.2 µM) is 0.629.
Turning to `Nc1cccc2c1CN(C1CCC(=O)NC1=O)C2=O` (configuration not stated) [Lenalidomide] + CC(=O)c1c(C)c2cnc(Nc3ccc(N4CCNCC4)cn3)nc2n(C2CCCC2)c1=O [Palbociclib] (partner 0.5 µM), the relative viability stood at 0.754.
On the same count and under the same terms, in the case of `Nc1cccc2c1CN(C1CCC(=O)NC1=O)C2=O` (configuration not stated) [Lenalidomide] + COc1cccc2cc(-c3nc([C@H]4CC[C@H](C(=O)O)CC4)n4ncnc(N)c34)[nH]c12 [OSI-027] (partner 0.5 µM) it was 0.709.

Staying with this assay, now noted: first compound 2.53 µM.
`Nc1cccc2c1CN(C1CCC(=O)NC1=O)C2=O` (configuration not stated) [Lenalidomide] + Nc1ncn([C@H]2C[C@H](O)[C@@H](CO)O2)c(=O)n1 [Decitabine] (partner 2 µM) registered a relative viability of 0.541.
Regarding `Nc1cccc2c1CN(C1CCC(=O)NC1=O)C2=O` (configuration not stated) [Lenalidomide] + N=C(N)NC(=N)NCCc1ccccc1 [Phenformin] (partner 250 µM), the relative viability was found to be 0.574.
The same measure, in the same setting: the figure for `Nc1cccc2c1CN(C1CCC(=O)NC1=O)C2=O` (configuration not stated) [Lenalidomide] + Nc1nc2[nH]cc(CCc3ccc(C(=O)N[C@@H](CCC(=O)O)C(=O)O)cc3)c2c(=O)[nH]1 [Pemetrexed] (partner 0.2 µM) is 1.08; for `Nc1cccc2c1CN(C1CCC(=O)NC1=O)C2=O` (configuration not stated) [Lenalidomide] + CC(=O)c1c(C)c2cnc(Nc3ccc(N4CCNCC4)cn3)nc2n(C2CCCC2)c1=O [Palbociclib] (partner 0.5 µM) it is 0.745.
`Nc1cccc2c1CN(C1CCC(=O)NC1=O)C2=O` (configuration not stated) [Lenalidomide] + COc1cccc2cc(-c3nc([C@H]4CC[C@H](C(=O)O)CC4)n4ncnc(N)c34)[nH]c12 [OSI-027] (partner 0.5 µM) displayed a relative viability of 0.722.

Still in this assay, the particulars now being: first compound 8 µM.
The compound `Nc1cccc2c1CN(C1CCC(=O)NC1=O)C2=O` (configuration not stated) [Lenalidomide] + Nc1ncn([C@H]2C[C@H](O)[C@@H](CO)O2)c(=O)n1 [Decitabine] (partner 2 µM) yielded a relative viability of 0.384.
`Nc1cccc2c1CN(C1CCC(=O)NC1=O)C2=O` (configuration not stated) [Lenalidomide] + N=C(N)NC(=N)NCCc1ccccc1 [Phenformin] (partner 250 µM) yielded a relative viability of 0.189.
On the same count and under the same terms, the figure for `Nc1cccc2c1CN(C1CCC(=O)NC1=O)C2=O` (configuration not stated) [Lenalidomide] + Nc1nc2[nH]cc(CCc3ccc(C(=O)N[C@@H](CCC(=O)O)C(=O)O)cc3)c2c(=O)[nH]1 [Pemetrexed] (partner 0.2 µM) is 0.336; for `Nc1cccc2c1CN(C1CCC(=O)NC1=O)C2=O` (configuration not stated) [Lenalidomide] + CC(=O)c1c(C)c2cnc(Nc3ccc(N4CCNCC4)cn3)nc2n(C2CCCC2)c1=O [Palbociclib] (partner 0.5 µM) it is 0.675.
The same measure, in the same setting: in the case of `Nc1cccc2c1CN(C1CCC(=O)NC1=O)C2=O` (configuration not stated) [Lenalidomide] + COc1cccc2cc(-c3nc([C@H]4CC[C@H](C(=O)O)CC4)n4ncnc(N)c34)[nH]c12 [OSI-027] (partner 0.5 µM) it was 0.756.

The next assay relates to NCI-H1975. Described as above. The following applies: first compound 0.253 µM. The gist of the method: as §1
Consider `Nc1cccc2c1CN(C1CCC(=O)NC1=O)C2=O` (configuration not stated) [Lenalidomide] + Nc1ncn([C@H]2C[C@H](O)[C@@H](CO)O2)c(=O)n1 [Decitabine] (partner 2 µM), for which the relative viability came out at 0.414.
The compound `Nc1cccc2c1CN(C1CCC(=O)NC1=O)C2=O` (configuration not stated) [Lenalidomide] + N=C(N)NC(=N)NCCc1ccccc1 [Phenformin] (partner 250 µM) gave a relative viability of 0.402.
Regarding `Nc1cccc2c1CN(C1CCC(=O)NC1=O)C2=O` (configuration not stated) [Lenalidomide] + Nc1nc2[nH]cc(CCc3ccc(C(=O)N[C@@H](CCC(=O)O)C(=O)O)cc3)c2c(=O)[nH]1 [Pemetrexed] (partner 0.2 µM), the relative viability is 0.29.
In turn, `Nc1cccc2c1CN(C1CCC(=O)NC1=O)C2=O` (configuration not stated) [Lenalidomide] + CC(=O)c1c(C)c2cnc(Nc3ccc(N4CCNCC4)cn3)nc2n(C2CCCC2)c1=O [Palbociclib] (partner 0.5 µM) showed a relative viability of 0.591.
On the same count and under the same terms, in the case of `Nc1cccc2c1CN(C1CCC(=O)NC1=O)C2=O` (configuration not stated) [Lenalidomide] + O=C(CCCCCCC(=O)Nc1ccccc1)NO [Vorinostat] (partner 1 µM) it was 0.72.
`Nc1cccc2c1CN(C1CCC(=O)NC1=O)C2=O` (configuration not stated) [Lenalidomide] + COc1cccc2cc(-c3nc([C@H]4CC[C@H](C(=O)O)CC4)n4ncnc(N)c34)[nH]c12 [OSI-027] (partner 0.5 µM) gave a relative viability of 0.817.

The same assay, now with this note: first compound 0.8 µM.
The compound `Nc1cccc2c1CN(C1CCC(=O)NC1=O)C2=O` (configuration not stated) [Lenalidomide] + Nc1ncn([C@H]2C[C@H](O)[C@@H](CO)O2)c(=O)n1 [Decitabine] (partner 2 µM) showed a relative viability of 0.334.
Consider `Nc1cccc2c1CN(C1CCC(=O)NC1=O)C2=O` (configuration not stated) [Lenalidomide] + N=C(N)NC(=N)NCCc1ccccc1 [Phenformin] (partner 250 µM), for which the relative viability was determined as 0.35.
